# Where two headings read alike, the source gives them in different places.
# Legend:
# HL-60 cells [1] = assay: Viable cell count of leukemic cells in suspension culture (Trypan blue); type: cell-based, human; details: for IC50: HL-60
# Description: (§1) Suspension culture of leukemic cells. Leukemic cell lines were cultured at a density of 3.0×10^5 cells/mL, and AML mononuclear cells at 5×10^5 cells/mL in the presence or absence of indicated concentrations of CDDO-Me. Appropriate amounts of DMSO (final concentration<0.05%) was included as a control. For cytotoxicity studies, 1 μM ara-C was added to the cultures.
# CDDO. […] The percentage of proliferating cells were analyzed by FCM.
# (§2) CDDO-Me. […] Mechanism of growth inhibition was analyzed on cell cycle and apoptosis in HL-60 cells.
# Daudi cells = assay: cells
# Description: as §1, §2
# HL-60 cells [2] = assay: Differentiation by CD11b/CD14 flow cytometry; type: cell-based, human; details: for CD11b %: 7 days; for percentage of CD14 (+) live cells (FCM): no ligand
# Description: (§3) Immunophenotyping. The PE-conjugated anti-CD11b, FITC-conjugated anti-CD14 monoclonal antibody (mAb) (Becton Dickinson) and PE-conjugated anti-CD95 mAb (PharMingen) were used at a 1/10 dilution.
# Enhancement in cellular differentiation using combinations of CDDO with ATRA were tested. […] Cell differentiation was analyzed by flow cytometry (CD14/CD11b staining). […] These experiments were repeated. […]
# Finally, the inventors examined if CDDO-Me combined with ATRA would enhance differentiation. […] […] Next, combined treatment with CDDO-Me and RXR-specific ligand were tested for potentiation of anti-leukemic effects.
# primary AML cells = assay: Monocytic differentiation (CD14) in primary AML; type: cell-based, human
# Description: as §3
# (§4) CDDO-Me. […] Effects of CDDO-Me were also tested on clonogenic AML cells.
# CML-BC sample = assay: Colony formation of CML-BC sample; type: cell-based, human; details: CDDO 0.5 μM, CDDO-Me 0.1 μM
# normal CD34+ cells = assay: CFU-GM of normal CD34+ cells (CFU-GEMM assay); type: cell-based, human; details: for CFU-GM generated from normal CD34+ cells detected: n=3
# Description: CFU-Granulocyte-Erythroid-Macrophage-Megakaryocyte (CFU-GEMM) Assay. In three experiments, 2×10^5 CD34^+ cells isolated from normal bone marrow (n=1) or G-CSF-stimulated peripheral blood (n=2) were plated in 0.8% methylcellulose with IMDM, 1 U/mL human erythropoietin (Terry Fox Laboratories, Vancouver, Canada), and 50 ng/mL recombinant hGM-CSF. CDDO-Me was added at the initiation of cultures at concentrations ranging from 0.05 to 0.5 μg/mL.
# The effect of CDDO on clonogenic AML cells were tested. […] (FIG. 7).
# as §4
# U937 cells = assay: Atlas Cancer cDNA array, differential gene expression; type: cell-based, human; details: 1 μM; CDDO 24 hrs, CDDO-Me 1 hour
# Description: The differential expression of a large number of genes involved in apoptosis, proliferation and signal transduction were analyzed utilizing the Atlas Cancer c-DNA array from Clontech (Palo Alto, Calif.). […] The downregulation of 17 genes (over two-fold) was seen, some of these genes were MAPKK5, STAT5A and B, DNA topoisomerase 2, VEGFR1 and VEGF. […] Differential expression of a large number of genes involved in apoptosis, proliferation and signal transduction was also performed for CDDO-Me. […] In preliminary studies, the inventors observed over two-fold downregulation of 23 genes: these include MAPK/ERK2, endothelin2, MLH1. Remarkably, decreased expression of VEGFR1, that potentially mediate pro-angiogenic properties of the leukemic cells, was observed (FIG. 33). […] The cDNA array data require conformation but may indicate what changes in gene expression contribute to the observed anti-leukemic effects of CDDO-Me.
# U937 S70E Bcl-2 cells = assay: Viability of Bcl-2 mutant transfectants; type: cell-based, human; details: 0.1 μM
# From the text: (§5) Cell lines. HL-60, KG-1, U937, and Jurkat cell lines were obtained from the American Type Culture Collection (Rockville, Md.). NB4 cells were kindly provided by Dr. M. Lanotte. HL-60-doxorubicin-resistant cells (HL-60-DOX) were also used. U937/Bcl-2 and its appropriate vector controls (U937/pCEP) were provided by Dr. S. Grant. U937 cells were transfected with WT, S70A, or S70E cDNA containing cytomegalovirus plasmids by electroporation (200 V, 975 μF capacitance) and selected and maintained in the medium plus 500 μg/mL G418 (Gibco BRL, Gaithersburg, Md.)
# (§6) The effect of CDDO-Me on Bcl-2 phosphorylation was further investigated by performing metabolic labeling studies with ^32P-orthophosphoric acid. […] To further investigate mechanisms of inhibition of Bcl-2 phosphorylation that could may a role in CDDO-Me-induced cell death, the inventors selected U937 cells that were stably transfected with a serine 70→alanine, Bcl-2 mutant (S70A).
# U937/S70A Bcl-2 cells = assay: Viability of Bcl-2 mutant transfectants; type: cell-based, human; details: 0.1 μM
# From the text: as §5, §6
# [3] = test system: bone marrow endothelial cells; assay: Matrigel tube-like endothelial structure formation; type: cell-based
# Description: CDDO. PPARγ nuclear receptor is expressed in bone marrow endothelial cells, and PPARγ ligands inhibit inhibited endothelial cell proliferation. […] The present inventors therefore tested the effects of CDDO in endothelial cell assays. The formation of tube-like endothelial structures was performed using Matrigel®, a basement membrane matrix extracted from the Engelbreth-Holm Swarm mouse sarcoma cell line. Bone marrow endothelial cells with recombinant angiogenic cytokines were incubated in the presence or absence of CDDO, and formation of tube-like endothelial structures was assessed by direct observation using a inverted contrast-phase microscope. […] Vascular endothelial cells (HUVEC) were grown in EBM-2 or EGM-2 media (Clonetics) containing VEGF, EGF, bFGF and IGF-1. The proliferation of endothelial cells was assessed by inverted contrast-phase microscope after 24 hrs of CDDO exposure in the indicated concentrations. CDDO-Me. The formation of tube-like endothelial structures that are associated with angiogenesis was analyzed using a Matrigel system (Kubota et al., 1988). Capillary-like structure formation of bone marrow endothelium was inhibited by CDDO-Me. […] Thus, CDDO-Me also has anti-angiogenic effects.
# HL-60-Dox cells = assay: Killing of MDR-1 expressing cells; type: cell-based, human
# [4] = test system: Bcl-2 protein in U937 cells; assay: Bcl-2 protein by quantitative flow cytometry; type: cell-based, human; details: 1 μM, 72 hrs
# Description: The involvement of the mitochondrial apoptotic pathway in CDDO mediated apoptosis was analyzed in U937 cells.
# PPARγ LBD = biological target: T1, PPARγ LBD (Homo sapiens, UniProt P37231); assay: Scintillation proximity assay (SPA), competition binding; details: read-out: Ki, competition with [3H]-rosiglitazone for binding to PPARγ LBD
# T1 construct: bacterially expressed PPARγ LBD; made in house
# From the text: PPARγ, a member of a family of nuclear receptors, induces differentiation and growth arrest in preadipocyte cells and can mediate inflammatory processes.
# T1 sequence (P37231 238-503 limits assumed): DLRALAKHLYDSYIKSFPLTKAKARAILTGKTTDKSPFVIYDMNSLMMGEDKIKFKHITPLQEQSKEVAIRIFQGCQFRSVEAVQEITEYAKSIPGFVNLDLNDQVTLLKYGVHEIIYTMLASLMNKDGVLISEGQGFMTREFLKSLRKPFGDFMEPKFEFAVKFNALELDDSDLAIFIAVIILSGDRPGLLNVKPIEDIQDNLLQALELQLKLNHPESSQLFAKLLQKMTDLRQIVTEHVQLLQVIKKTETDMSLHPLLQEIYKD
structure (smiles),measurement,setting,value
COC(=O)[C@]12CCC(C)(C)C[C@H]1[C@H]1C(=O)C=C3[C@@]4(C)C=C(C#N)C(=O)C(C)(C)[C@@H]4CC[C@@]3(C)[C@]1(C)CC2 [CDDO-Me],viable cells recovered,"HL-60 cells [1]; 0.5 μM, 48 hrs",essentially no viable cells
same,IC50,HL-60 cells [1]; read-out: IC50,400 nM
same,"cell number, % of DMSO-controls","Daudi cells; 0.3 μM, 48 hrs",22.5%
same,CD11b+ cells,HL-60 cells [2]; 0.1 μM,86.6%
same,CD11b+ cells,"HL-60 cells [2]; 48 hrs, CDDO-Me 0.1 μM, ATRA 1 μM, alone or simultaneously (DMSO controls 40%)",67.4%
same,AML samples with induced monocytic differentiation (CD14),primary AML cells,2/5
same,inhibition of colonies in one CML-BC sample,CML-BC sample,> 50%
same,CFU-GM generated from normal CD34+ cells detected,normal CD34+ cells; 0.1 μM,79±5.6%
same,CFU-GM generated from normal CD34+ cells detected,normal CD34+ cells; 0.5 μM,63.4±1.1%
same,number of genes downregulated over two-fold,U937 cells,23
same,number of genes upregulated,U937 cells,Twenty-two
same,viable cells,U937 S70E Bcl-2 cells,75%
same,decrease in viability,U937/S70A Bcl-2 cells,60%
same,formation of capillary-like structures by bone marrow endothelium,[3],inhibited
same,sensitivity of HL-60-Dox cells with high expression of the MDR-1 gene,HL-60-Dox cells,sensitive to CDDO-Me-induced killing
"CC1(C)CCC2(C(=O)O)CCC3(C)C(C(=O)C=C4C5(C)C=C(C#N)C(=O)C(C)(C)C5CCC43C)C2C1 (stereo not shown) [CDDO, 2-cyano-3,12-dioxoolen-1,9-dien-28-oic acid]",IC50,"HL-60 cells [1]; Homo sapiens, 72 and 96 hours, read-out: concentration of CDDO that reduced cell numbers by 50%",1 nM
same,IC50,"HL-60 cells [1]; Homo sapiens, 48 hours, read-out: concentration of CDDO that reduced cell numbers by 50%",10 nM
same,Daudi cells alive,Daudi cells; 1 μM,73.6%
same,viability at 2 µM,"Daudi cells; Homo sapiens, Daudi, read-out: viable cells",25.3%
same,concentration needed to exert similar effect (CD11b+ as 0.1 μM CDDO-Me),HL-60 cells [2],1 µM
same,CD11b %,HL-60 cells [2]; 0.1 μM (DMSO control 24.9),45.0%
same,CD11b %,HL-60 cells [2]; 0.3 μM,75.9%
same,percentage of CD14 (+) live cells (FCM),HL-60 cells [2]; CDDO 0.5 μM,36.7%
same,percentage of CD14 (+) live cells (FCM),HL-60 cells [2]; CDDO 1 μM,80.4%
same,concentration at which monocytic differentiation was induced,HL-60 cells [2]; HL-60 cells,0.5 to 1.0 µM
same,AML samples with induced monocytic differentiation (CD14),primary AML cells,3/11
same,inhibition at 0.5 µM,"CML-BC sample; Homo sapiens, read-out: inhibition of colonies in one CML-BC sample",> 50%
same,CFU-GM of normal CD34+ cells inhibited by,normal CD34+ cells; at this concentration (n=3),26.8±4.3%
same,decrease in Bcl-2 protein,[4],> 40%
same,number of genes downregulated over two-fold,U937 cells,17
same,number of genes upregulated,U937 cells,7
same,Ki,PPARγ LBD,12 nM
same,formation of capillary-like structures by bone marrow endothelium,[3],potently inhibited the formation of capillary-like structures
same,sensitivity of HL-60-Dox cells with high expression of the MDR-1 gene,HL-60-Dox cells,sensitive to CDDO-induced killing
